Experiment [1] concerns the target T1, AHR (Mus musculus, UniProt P30561).
T1 sequence (P30561 1-848 P471L/N533S/M589L): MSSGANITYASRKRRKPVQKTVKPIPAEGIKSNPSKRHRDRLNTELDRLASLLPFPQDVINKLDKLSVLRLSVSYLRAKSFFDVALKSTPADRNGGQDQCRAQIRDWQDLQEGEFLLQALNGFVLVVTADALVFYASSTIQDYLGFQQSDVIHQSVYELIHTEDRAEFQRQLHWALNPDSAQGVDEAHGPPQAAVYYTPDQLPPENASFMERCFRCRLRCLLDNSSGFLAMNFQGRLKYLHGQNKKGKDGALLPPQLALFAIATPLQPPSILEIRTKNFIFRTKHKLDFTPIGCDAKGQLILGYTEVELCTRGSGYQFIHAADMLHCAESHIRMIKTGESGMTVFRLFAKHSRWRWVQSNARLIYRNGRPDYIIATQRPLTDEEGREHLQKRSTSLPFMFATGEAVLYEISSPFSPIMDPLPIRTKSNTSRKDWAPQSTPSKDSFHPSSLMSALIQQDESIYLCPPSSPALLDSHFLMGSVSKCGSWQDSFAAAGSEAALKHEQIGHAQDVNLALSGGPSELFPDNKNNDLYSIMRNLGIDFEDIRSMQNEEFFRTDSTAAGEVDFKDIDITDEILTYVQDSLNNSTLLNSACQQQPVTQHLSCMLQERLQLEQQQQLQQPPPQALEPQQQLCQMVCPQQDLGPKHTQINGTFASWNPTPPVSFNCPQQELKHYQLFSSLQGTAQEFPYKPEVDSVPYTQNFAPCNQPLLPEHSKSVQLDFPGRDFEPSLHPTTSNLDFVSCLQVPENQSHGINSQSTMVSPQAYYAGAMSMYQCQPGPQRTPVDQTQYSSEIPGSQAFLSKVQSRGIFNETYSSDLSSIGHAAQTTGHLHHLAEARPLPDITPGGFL
The experiment is described as follows: In vitro assay 3: antagonism in mouse cell line (AHR transactivation, firefly luciferase reporter, kynurenic acid prestimulated). Type of experiment: cell-based. A digest of the protocol:
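Antagonism read as reduced firefly luciferase signal (SteadyGlo) from a stably transfected AHR/DRE reporter in a mouse line prestimulated with kynurenic acid. Data normalized to controls, the full-inhibition control being cells without kynurenic acid; multiple determinations given as average or median values.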
In general terms: In a reporter assay the amount or activity of a reporter protein is the signal.

Experiment [2] has as its target T2, AHR (Homo sapiens, UniProt P35869).
T2 construct: U87 MG glioblastoma cells (ATCC #HTB-14) endogenously expressing AHR; endogenous in cells; host or cells: U87 MG glioblastoma cells (ATCC #HTB-14)
T2 sequence (P35869 11-848): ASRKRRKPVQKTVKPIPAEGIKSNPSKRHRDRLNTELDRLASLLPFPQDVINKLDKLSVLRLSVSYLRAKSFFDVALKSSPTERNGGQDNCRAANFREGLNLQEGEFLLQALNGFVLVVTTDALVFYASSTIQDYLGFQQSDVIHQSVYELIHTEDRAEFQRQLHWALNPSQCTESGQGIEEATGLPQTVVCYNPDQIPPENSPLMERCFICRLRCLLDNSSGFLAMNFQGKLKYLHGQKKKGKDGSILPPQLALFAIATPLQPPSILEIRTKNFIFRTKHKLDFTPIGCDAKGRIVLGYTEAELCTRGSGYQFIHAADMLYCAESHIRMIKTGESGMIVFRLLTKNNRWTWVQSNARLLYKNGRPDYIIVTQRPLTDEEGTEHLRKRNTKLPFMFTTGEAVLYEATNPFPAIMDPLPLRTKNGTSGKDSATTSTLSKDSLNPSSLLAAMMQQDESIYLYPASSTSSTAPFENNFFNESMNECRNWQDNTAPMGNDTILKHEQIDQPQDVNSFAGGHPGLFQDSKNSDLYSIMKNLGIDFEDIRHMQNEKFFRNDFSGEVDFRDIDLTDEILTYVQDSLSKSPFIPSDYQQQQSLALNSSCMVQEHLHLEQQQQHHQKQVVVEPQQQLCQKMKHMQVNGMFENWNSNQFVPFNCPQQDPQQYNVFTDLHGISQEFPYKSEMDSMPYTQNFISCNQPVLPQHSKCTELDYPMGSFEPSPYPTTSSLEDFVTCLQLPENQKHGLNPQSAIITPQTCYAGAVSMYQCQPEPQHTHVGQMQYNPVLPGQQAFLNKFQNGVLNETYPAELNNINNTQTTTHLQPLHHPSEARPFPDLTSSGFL
The experiment can be described thus: In vitro assay 1: antagonism in human cell line (AHR transactivation, firefly luciferase reporter, kynurenic acid prestimulated). The class given is cell-based. The note with it: AHR Antagonism Human IC50 [M]. Summed up: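 Antagonism is measured against kynurenic acid prestimulation in U87 MG glioblastoma cells carrying stable DRE-luciferase and Renilla reporters. Positive inhibition control: 150 μM kynurenic acid with 5 μM staurosporine. Values are normalized to controls; repeats are averaged or given as medians.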

Setting [3] is: mouse Hepa 1c1c7 cells, 200 μM kynurenic acid, 20 hours, read-out: AHR Antagonism Mouse IC50.
Setting [4] is: Hepa 1c1c7 cells, 200 μM kynurenic acid, 20 hours, firefly luciferase reporter, read-out: AHR Antagonism Mouse IC50.

Structures are written as SMILES. Where two headings read alike, the source gives them in different places. Some results are limits rather than exact numbers.

As to `COc1cccc(-c2nc3c4ccccc4nc(NC4(C(N)=O)COC4)n3n2)c1` [Example 87, 3-{[2-(3-methoxyphenyl)[1,2,4]triazolo[1,5-c]quinazolin-5-yl]amino}oxetane-3-carboxamide], the values for the IC50 in experiment [1] (setting [3]) and in experiment [2] were 282 nM and 4.85e-07 M, respectively.
In the case of `CC[C@H](Nc1nc2c(Br)cccc2c2nc(-c3ccc(Cl)cc3OC(F)F)nn12)C(N)=O` [Example 698, (2S)-2-({7-bromo-2-[4-chloro-2-(difluoromethoxy)phenyl][1,2,4]triazolo[1,5-c]quinazolin-5-yl}amino)butanamide], the IC50 (as a rule, the midpoint of a concentration-inhibition curve) was determined as 7.35 nM in experiment [1] (read-out: AHR Antagonism Mouse IC50, mouse Hepa 1c1c7 cells, 200 μM kynurenic acid, 20 hours) and 4.68e-08 M in experiment [2].
`O=C1NCCCC[C@H]1Nc1nc2ccccc2c2nc(-c3cccnn3)nn12` [Example 644, (3R)-3-{[2-(pyridazin-3-yl)[1,2,4]triazolo[1,5-c]quinazolin-5-yl]amino}azepan-2-one]: the IC50 in experiment [1] (setting [3]) turned out to be 61.7 nM; in experiment [2], 1.03e-07 M.
The matching figures for `Cc1cc(-c2nc3c4ccccc4nc(N[C@@H]4CCN(C)C4=O)n3n2)cs1` [Example 355]: 36.6 nM and 3.79e-08 M.
Turning to `O=C1NCCCC[C@H]1Nc1nc2ccccc2c2nc(-c3cnccc3C(F)(F)F)nn12` [Example 490, (3R)-3-({2-[4-(trifluoromethyl)pyridin-3-yl][1,2,4]triazolo[1,5-c]quinazolin-5-yl}amino)azepan-2-one], the IC50 in experiment [1] (setting [3]) came to 50.6 nM; in experiment [2], 4.25e-08 M.
The corresponding values for `Cc1ccccc1-c1nc2c3ccccc3nc(NC3CNCCNC3=O)n2n1` (single isomer, unassigned) [Example 46, 6-{[2-(2-methylphenyl)[1,2,4]triazolo[1,5-c]quinazolin-5-yl]amino}-1,4-diazepan-5-one] are 5.25 nM and 2.93e-08 M.
On to `CCCCNC(=O)[C@@H](CC)Nc1nc2c(Br)cccc2c2nc(-c3ccc(Cl)cc3OC(F)(F)F)nn12` [Example 814, (2R)-2-({7-bromo-2-[4-chloro-2-(trifluoromethoxy)phenyl][1,2,4]triazolo[1,5-c]quinazolin-5-yl}amino)-N-butylbutanamide], for which the IC50 was found to be 11 nM in experiment [1] (setting [4]) and 2.5e-08 M in experiment [2] (firefly luciferase reporter).
The matching figures for `CCn1cc(-c2nc3c4cccc(Cl)c4nc(N[C@@H]4CNCCNC4=O)n3n2)c(C)n1` [Example 958, (6R)-6-{[7-chloro-2-(1-ethyl-3-methyl-1H-pyrazol-4-yl)[1,2,4]triazolo[1,5-c]quinazolin-5-yl]amino}-1,4-diazepan-5-one]: 2.84 nM and 1.9e-09 M.
For the compound `COc1cccc(-c2nc3c4ccccc4nc(N[C@@H](C)C(N)=O)n3n2)c1` [Example 81], the results for the 50% inhibitory concentration (IC50) in experiment [1] (setting [3]) and in experiment [2] were 287 nM and 4.02e-07 M, respectively.
The corresponding values for `COc1ccc(-c2nc3c4ccc(Br)cc4nc(N[C@@H]4CCCCNC4=O)n3n2)cc1` [Example 229, (3R)-3-{[8-bromo-2-(4-methoxyphenyl)[1,2,4]triazolo[1,5-c]quinazolin-5-yl]amino}azepan-2-one] are 101 nM and 5.82e-08 M.
Turning to `CCn1cc(-c2nc3c4cccc(C(F)(F)F)c4nc(N[C@H]4CNCCNC4=O)n3n2)c(C)n1` [Example 949, (6S)-6-{[2-(1-ethyl-3-methyl-1H-pyrazol-4-yl)-7-(trifluoromethyl)[1,2,4]triazolo[1,5-c]quinazolin-5-yl]amino}-1,4-diazepan-5-one], the IC50 in experiment [1] (setting [4]) was found to be 14.7 nM; in experiment [2] (firefly luciferase reporter), 4.4e-09 M.
The matching figures for `CC(C)n1cc(-c2nc3c4cccc(Cl)c4nc(N[C@@H]4CNCCNC4=O)n3n2)cn1` [Example 956, (6R)-6-({7-chloro-2-[1-(propan-2-yl)-1H-pyrazol-4-yl][1,2,4]triazolo[1,5-c]quinazolin-5-yl}amino)-1,4-diazepan-5-one]: 8.5 nM and 5.77e-09 M.
`CCNC(=O)C(CC)Nc1nc2ccccc2c2nc(-c3ccccc3OC(F)(F)F)nn12` (single isomer, unassigned) [Example 664, N-ethyl-2-({2-[2-(trifluoromethoxy)phenyl][1,2,4]triazolo[1,5-c]quinazolin-5-yl}amino)butanamide]: the IC50 in experiment [1] (setting [3]) amounted to 1.47 nM; in experiment [2], 1.26e-08 M.
The corresponding values for `O=C1NCCNC[C@H]1Nc1nc2c(Cl)cccc2c2nc(-c3ccc(F)cc3)nn12` [Example 420, (6R)-6-{[7-chloro-2-(4-fluorophenyl)[1,2,4]triazolo[1,5-c]quinazolin-5-yl]amino]-1,4-diazepan-5-one] are 0.887 nM and 9.36e-10 M.
As for `O=C1NCCCC[C@H]1Nc1nc2ccccc2c2nc(-c3ccccc3OC(F)F)nn12` [Example 470, (3R)-3-({2-[2-(difluoromethoxy)phenyl][1,2,4]triazolo[1,5-c]quinazolin-5-yl}amino)azepan-2-one], the figures for the IC50 in experiment [1] (setting [3]) and in experiment [2] were 0.5 nM and 1.34e-09 M, respectively.
For `O=C1NCCCC[C@H]1Nc1nc2ccccc2c2nc(-c3ccccc3C(F)(F)F)nn12` [Example 52, (3R)-3-({2-[2-(trifluoromethyl)phenyl][1,2,4]triazolo[1,5-c]quinazolin-5-yl}amino)azepan-2-one], the values for the IC50 in experiment [1] (setting [3]) and in experiment [2] were 3.22 nM and 1.3e-08 M, respectively.
With `CN1CCNC(=O)[C@H](Nc2nc3c(Br)cccc3c3nc(-c4cnn(C)c4)nn23)C1` [Example 994, (6R)-6-{[7-bromo-2-(1-methyl-1H-pyrazol-4-yl)[1,2,4]triazolo[1,5-c]quinazolin-5-yl]amino}-1-methyl-1,4-diazepan-5-one], the IC50 in experiment [1] (setting [4]) worked out at 25.6 nM; in experiment [2] (firefly luciferase reporter), 2.32e-08 M.
In the case of `CCC[C@@H](Nc1nc2ccccc2c2nc(-c3cc(Cl)ccc3OC(F)(F)F)nn12)C(=O)NC` [Example 501, N^2-{2-[5-chloro-2-(trifluoromethoxy)phenyl][1,2,4]triazolo[1,5-c]quinazolin-5-yl}-N-methyl-D-norvalinamide], the IC50 is 90.8 nM in experiment [1] (setting [3]) and greater than 2e-05 M in experiment [2].
The matching figures for `CCn1cc(-c2nc3c4cccc(C(F)(F)F)c4nc(N[C@@H]4CCCCNC4=O)n3n2)cn1` [Example 675, (3R)-3-{[2-(1-ethyl-1H-pyrazol-4-yl)-7-(trifluoromethyl)[1,2,4]triazolo[1,5-c]quinazolin-5-yl]amino}azepan-2-one]: 2.26 nM and 1.22e-09 M.
The corresponding values for `O=C1NCC[C@H]1Nc1nc2ccccc2c2nc(-c3cc(C(F)(F)F)cc(C(F)(F)F)c3)nn12` [Example 360, (3R)-3-({2-[3,5-bis(trifluoromethyl)phenyl][1,2,4]triazolo[1,5-c]quinazolin-5-yl}amino)pyrrolidin-2-one] are 5440 nM and greater than 2e-05 M.

The record behind these values is US20230113037A1 (Bayer Aktiengesellschaft, priority 2019, published 2023).
